The results in this text go back to ChEMBL document CHEMBL3507680, “University of Dundee, Gates Library screen for HepG2 cell viability”.

SMILES strings stand for the structures.

The data set can be described thus: Human HepG2 cell viability assay in 384 well format. It is filed as toxicity, cell-based. Set-up: dose 125 nL, time 70.5 hour; concentration not given beside the values. Conditions: HepG2 cells, read-out: Inhibition.
With `c1cnn(CCNCc2cnc(N3CCCC3)nc2)c1`, the cytotoxicity at 70.5 h is -9.32%. With `O=C(NCCc1ccc(Cl)cc1)c1coc(CN2CCOCC2)c1` the figure was -5.77%; with `CCn1cc(NC(=O)NCC(O)CN2CCCCC2)cn1` (centres undefined), -14.9%; with `CCN1CCC2(CN(C(=O)N(C)C)CC23CCNCC3)C1=O` (centres undefined), -8.8%. As for `CC(C)NC(=O)[C@H]1CCS(=O)(=O)[C@@H]2CN(c3ncc(F)cn3)C[C@H]12`, the cytotoxicity at 70.5 h is -2.87%.

As to `O=C(NCc1nc(-c2ncccn2)no1)c1ccc(C2CCCO2)s1` (centres undefined), the cytotoxicity at 70.5 h is 11.9%.

Take `Cc1csc(CNc2cnn(C(C)C)c2)n1`: the cytotoxicity at 70.5 h amounted to 3.67%. Take `N#CCSCCCN1CCCC(C(=O)N2CCCCCC2)C1` (centres undefined): the cytotoxicity at 70.5 h is -4.07%. For `COc1c(C2CCCN2C(=O)c2ccco2)c(C)nn1C` (centres undefined), the cytotoxicity at 70.5 h was 8.77%. With `CN1CC(=O)N(c2ccsc2)CC12CCN(S(=O)(=O)C1CC1)C2` (centres undefined) the figure was -96.5%; with `O=C(C1CCC1)N1CCC2(CCNCC2)C1`, 13.3%; with `COCC1CN(S(=O)(=O)Cc2ccccc2)Cc2c1cnn2C` (centres undefined), -1.14%.

As for `CCn1ccnc1C1CCN(C(=O)C(O)c2ccc(Cl)cc2)CC1` (centres undefined), the cytotoxicity at 70.5 h is -2.92%. For the compound `Cc1cc(CN2C[C@@H]3CN(Cc4ccsc4)CCO[C@@H]3C2)no1`, the cytotoxicity at 70.5 h was 7.7%. As to `CC(C)c1nnc2ccc(N3CCC(C(=O)O)CC3)nn12`, the cytotoxicity at 70.5 h is -25.9%.

On to `COc1cc(C)ccc1OCC(=O)Nc1ccnc(OCCN(C)C)c1`, for which the cytotoxicity at 70.5 h was found to be 39.3%.

Turning to `O=C(NCc1cccnc1)[C@@H]1C[C@H]2[C@H](CCN2c2ncc(F)cn2)O1`, the cytotoxicity at 70.5 h was -4.83%. As to `COc1ccccc1C1CNC(=O)c2nc(-c3ncc[nH]3)[nH]c2C1` (centres undefined), the cytotoxicity at 70.5 h was -10.6%.

In the case of `Cc1nn(C)c(C)c1C1CCCN1C(=O)c1cnccn1` (centres undefined), the cytotoxicity at 70.5 h was -2.94%.

As for `COCCCN1CCCC1c1noc(C2CC2)n1` (centres undefined), the cytotoxicity at 70.5 h came out at 23.8%.

On to `CC(c1ccncc1)N(CCN(C)C)C(=O)Nc1ccc(Cl)cc1` (centres undefined), for which the cytotoxicity at 70.5 h was -14.7%.

`CCn1nc(C)c(C(=O)N2C[C@@H](CN(C)C)[C@@H](CO)C2)c1C`: the cytotoxicity at 70.5 h was 0.473%.

For `Cc1nc(C)n(C2CCCN(C(=O)c3cc4ccccc4n3C)C2)n1` (centres undefined), the cytotoxicity at 70.5 h was -1.56%.

Regarding `CC(=O)NCC1CCN(C(=O)CCOc2ccc(C(C)C)cc2)CC1`, the cytotoxicity at 70.5 h was -0.488%. For the compound `Cc1ccc(C(N)=O)cc1NCCOc1cccc(C#N)c1`, the cytotoxicity at 70.5 h was -4.01%.

Regarding `Cc1nc(C2CCCNC2)cc(N(Cc2nccn2C)C2CC2)n1` (centres undefined), the cytotoxicity at 70.5 h was determined as 7.52%.

Take `COc1cccc(C(C(=O)O)N2CCC(Cn3cccn3)CC2)c1OC` (centres undefined): the cytotoxicity at 70.5 h is -9.71%. As for `O=C(NCC1CCOC1)N1CCN(c2ncccn2)CC1` (centres undefined), the cytotoxicity at 70.5 h is 0.214%. Regarding `Cc1cc(C2CCCN(C(=O)c3cccnc3)C2)ccn1` (centres undefined), the cytotoxicity at 70.5 h was -11.1%.

`Cc1ccc(N2CCCN(C(=O)c3cc(CC(C)C)n[nH]3)CC2)nn1`: the cytotoxicity at 70.5 h was 12.9%. `CC(C)C1CN(C(=O)c2ccncc2)CCS1` (centres undefined): the cytotoxicity at 70.5 h is -1.14%. With `Cc1cc(C2CCCN2Cc2cc(=O)n(C)c(=O)n2C)no1` (centres undefined) the figure was 18.5%; with `CCC(CC)C(=O)NCC1(NC(C)c2ccccc2)CCOCC1` (centres undefined), 16.6%; with `O=C(Cn1c(=O)oc2ccccc21)NCC1(O)CCc2ccccc2C1` (centres undefined), -2.64%. As for `CC(C)CN1C[C@H](COCc2ccccc2)Oc2ncccc2C1=O`, the cytotoxicity at 70.5 h amounted to 23.1%. For the compound `Cc1cccc(N2CCC3(CCCC(=O)N3)CC2)n1`, the cytotoxicity at 70.5 h is -0.82%. In the case of `CCC1CN(C)c2ccccc2CN1C(=O)CCn1cncn1` (centres undefined) it was -7.82%; in that of `Cc1c(S(=O)(=O)N2CCCCC2c2nnc(-c3cccs3)o2)cnn1C` (centres undefined), -2.57%; in that of `O=C1NC2(CCN(CCO)CC2)CC1c1ccccc1` (centres undefined), -2.09%.
